How the values were obtained:
Assay type in all cases: in vivo
[1] = test system: barnyardgrass (Echinochloa crus-galli); assay: Test B pre-/postemergence plant response
Method in brief: (§1)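 Evaluation is visual, about 10 days after application, rating injury from 0 (none) to 100 (complete control) relative to untreated controls. Application was a preemergence soil spray on seeded pots or a postemergence spray on one- to two-leaf plants.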

[2] = test system: corn (Zea mays); assay: Test B pre-/postemergence plant response
Method in brief: as §1

[3] = test system: giant foxtail (Setaria faberii); assay: Test B pre-/postemergence plant response
Method in brief: as §1

[4] = test system: pigweed (Amaranthus retroflexus); assay: Test B pre-/postemergence plant response
Method in brief: as §1

[5] = test system: wheat (Triticum aestivum); assay: Test B pre-/postemergence plant response
Method in brief: as §1

[6] = test system: barnyardgrass (Echinochloa crus-galli); assay: Test C flooded paddy test plant response; conditions: Flood, 250 g ai/ha; scale of 0 to 100 where 0 is no effect and 100 is complete control; 13 to 15 days
Method in brief: (§2)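 2-leaf plants; flood 3 cm, cpd into paddy water; greenhouse 13–15 d; visual score vs untreated, 0 = no effect, 100 = complete control; dash = no result.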

[7] = test system: ducksalad (Heteranthera limosa); assay: Test C flooded paddy test plant response; conditions: Flood, 250 g ai/ha; scale of 0 to 100 where 0 is no effect and 100 is complete control; 13 to 15 days
Method in brief: as §2

[8] = test system: rice (Oryza sativa); assay: Test C flooded paddy test plant response; conditions: Flood, 250 g ai/ha; scale of 0 to 100 where 0 is no effect and 100 is complete control; 13 to 15 days
Method in brief: as §2

[9] = test system: small-flower umbrella sedge (Cyperus difformis); assay: Test C flooded paddy test plant response; conditions: Flood, 250 g ai/ha; scale of 0 to 100 where 0 is no effect and 100 is complete control; 13 to 15 days
Method in brief: as §2

[10] = test system: galium (catchweed bedstraw, Galium aparine); assay: Test D pre-/postemergence plant response
From the text: (§3) Seeds of plant species selected from blackgrass (Alopecurus myosuroides), Italian ryegrass (Lolium multiflorum), winter wheat (Triticum aestivum), galium (catchweed bedstraw, Galium aparine), corn (Zea mays), large (Lg) crabgrass (Digitaria sanguinalis), giant foxtail (Setaria faberii), johnsongrass (Sorghum halepense), lambsquarters (Chenopodium album), morningglory (Ipomoea coccinea), yellow nutsedge (Cyperus esculentus), pigweed (Amaranthus retroflexus), ragweed (common ragweed, Ambrosia elatior), soybean (Glycine max), bamyardgrass (Echinochloa crus-galli), oilseed rape (Brassica napus), waterhemp (common waterhemp, Amaranthus rudis), and velvetleaf (Abutilon theophrasti) were planted into a blend of loam soil and sand and treated preemergence with test chemicals formulated in a non-phytotoxic solvent mixture which included a surfactant. At the same time, plants selected from these crop and weed species and also kochia (Kochia scoparia), wild oat (Avena fatua), and chickweed (common chickweed, Stellaria media) were planted in pots containing Redi-Earth® planting medium (Scotts Company, 14111 Scottslawn Road, Marysville, Ohio 43041) comprising spaghnum peat moss, vermiculite, wetting agent and starter nutrients and treated with postemergence applications of test chemicals formulated in the same manner. Plants ranged in height from 2 to 18 cm (1- to 4-leaf stage) for postemergence treatments. Treated plants and controls were maintained in a greenhouse for 13 to 15 days, after which time all species were compared to controls and visually evaluated. Plant response ratings, summarized in Table D, are based on a scale of 0 to 100 where 0 is no effect and 100 is complete control. A dash (-) response means no test result.

[11] = test system: johnsongrass (Sorghum halepense); assay: Test D pre-/postemergence plant response
From the text: as §3

[12] = test system: oilseed rape (Brassica napus); assay: Test D pre-/postemergence plant response
From the text: as §3

[13] = test system: ragweed (common ragweed, Ambrosia elatior); assay: Test D pre-/postemergence plant response
From the text: as §3

[14] = test system: winter wheat (Triticum aestivum); assay: Test D pre-/postemergence plant response
From the text: as §3

[15] = test system: yellow nutsedge (Cyperus esculentus); assay: Test D pre-/postemergence plant response
From the text: as §3

[16] = 31 g ai/ha, Postemergence, 0 to 100 scale, 0 no effect, 100 complete control
[17] = 125 g ai/ha, postemergence, 0 to 100 scale, 0 no effect, 100 complete control
[18] = Preemergence, 31 g ai/ha, 0 to 100 scale (0 no effect, 100 complete control)
[19] = Preemergence, 125 g ai/ha, 0 to 100 scale where 0 is no effect and 100 is complete control
[20] = Postemergence, 16 g ai/ha, scale 0 to 100 (0 no effect, 100 complete control)
[21] = Postemergence, 31 g ai/ha, scale 0 to 100 (0 no effect, 100 complete control)
[22] = Postemergence, 62 g ai/ha, scale 0 to 100, 0 no effect, 100 complete control
[23] = Postemergence, 125 g ai/ha, scale 0 to 100, 0 no effect, 100 complete control
[24] = Postemergence, 500 g ai/ha, 0 to 100 scale (0 no effect, 100 complete control)
[25] = Preemergence, 500 g ai/ha, 0 to 100 scale where 0 is no effect and 100 is complete control
[26] = Preemergence, 16 g ai/ha, scale 0 to 100 (0 no effect, 100 complete control)
[27] = Preemergence, 31 g ai/ha, scale 0 to 100 (0 no effect, 100 complete control)
[28] = Preemergence, 62 g ai/ha, scale 0 to 100 (0 no effect, 100 complete control)

SMILES: Fc1ccc(Oc2ncc(Cl)cn2)c(-c2cc(C(F)F)on2)c1Cl [Compound 96]
- Plant response rating, Barnyardgrass [1, 16]: 10
- Plant response rating, Barnyardgrass [1, 17]: 30
- Barnyardgrass plant response rating [1, 18]: 0
- Plant response rating, Barnyardgrass [1, 19]: 20
- Plant response rating, Corn [2, 16]: 0
- Plant response rating, Corn [2, 17]: 20
- Plant response rating, Foxtail, Giant [3, 16]: 0
- Plant response rating, Foxtail, Giant [3, 17]: 50
- Foxtail, Giant plant response rating [3, 18]: 10
- Plant response rating, Foxtail, Giant [3, 19]: 40
- Plant response rating, Pigweed [4, 16]: 100
- Plant response rating, Pigweed [4, 17]: 100
- Pigweed plant response rating [4, 18]: 90
- Plant response rating, Pigweed [4, 19]: 100
- Plant response rating, Wheat [5, 16]: 0
- Plant response rating, Wheat [5, 17]: 0
- Barnyardgrass plant response rating [6]: 15
- Ducksalad plant response rating [7]: 90
- Rice plant response rating [8]: 30
- Sedge, Umbrella plant response rating [9]: 100
- Galium plant response rating [10, 20]: 70
- Galium plant response rating [10, 21]: 90
- Plant response rating, Galium [10, 22]: 80
- Plant response rating, Galium [10, 23]: 98
- Johnsongrass plant response rating [11, 20]: 0
- Johnsongrass plant response rating [11, 21]: 0
- Plant response rating, Johnsongrass [11, 22]: 5
- Plant response rating, Johnsongrass [11, 23]: 10
- Oilseed Rape plant response rating [12, 20]: 40
- Oilseed Rape plant response rating [12, 21]: 45
- Plant response rating, Oilseed Rape [12, 22]: 65
- Plant response rating, Oilseed Rape [12, 23]: 65
- Ragweed plant response rating [13, 20]: 0
- Ragweed plant response rating [13, 21]: 10
- Plant response rating, Ragweed [13, 22]: 10
- Plant response rating, Ragweed [13, 23]: 40
- Wheat plant response rating [14, 20]: 0
- Wheat plant response rating [14, 21]: 0
- Plant response rating, Wheat [14, 22]: 0
- Plant response rating, Wheat [14, 23]: 10
- Nutsedge, Yellow plant response rating [15, 20]: 0
- Nutsedge, Yellow plant response rating [15, 21]: 5
- Plant response rating, Nutsedge, Yellow [15, 22]: 5
- Plant response rating, Nutsedge, Yellow [15, 23]: 5

SMILES: Cc1cc(-c2ccccc2Oc2ncc(Cl)cn2)no1 [Compound 60]
- Plant response rating, Barnyardgrass [1, 17]: 50
- Plant response rating, Barnyardgrass [1, 24]: 100
- Plant response rating, Barnyardgrass [1, 19]: 80
- Plant response rating, Barnyardgrass [1, 25]: 100
- Plant response rating, Corn [2, 17]: 30
- Plant response rating, Corn [2, 24]: 90
- Plant response rating, Foxtail, Giant [3, 17]: 50
- Plant response rating, Foxtail, Giant [3, 24]: 100
- Plant response rating, Foxtail, Giant [3, 19]: 80
- Plant response rating, Foxtail, Giant [3, 25]: 100
- Plant response rating, Pigweed [4, 17]: 100
- Plant response rating, Pigweed [4, 24]: 100
- Plant response rating, Pigweed [4, 19]: 100
- Plant response rating, Pigweed [4, 25]: 100
- Plant response rating, Wheat [5, 17]: 30
- Plant response rating, Wheat [5, 24]: 90
- Barnyardgrass plant response rating [6]: 20
- Ducksalad plant response rating [7]: 80
- Rice plant response rating [8]: 30
- Sedge, Umbrella plant response rating [9]: 50
- Galium plant response rating [10, 20]: 30
- Galium plant response rating [10, 21]: 40
- Plant response rating, Galium [10, 22]: 50
- Plant response rating, Galium [10, 23]: 65
- Plant response rating (scale 0 to 100), Galium ([10]; Preemergence, 125 g ai/ha): 98
- Plant response rating, Galium [10, 26]: 98
- Plant response rating, Galium [10, 27]: 85
- Plant response rating, Galium [10, 28]: 100
- Johnsongrass plant response rating [11, 20]: 0
- Johnsongrass plant response rating [11, 21]: 0
- Plant response rating, Johnsongrass [11, 22]: 0
- Plant response rating, Johnsongrass [11, 23]: 5
- Plant response rating (scale 0 to 100), Johnsongrass ([11]; Preemergence, 125 g ai/ha): 45
- Plant response rating, Johnsongrass [11, 26]: 0
- Plant response rating, Johnsongrass [11, 27]: 0
- Plant response rating, Johnsongrass [11, 28]: 15
- Oilseed Rape plant response rating [12, 20]: 60
- Oilseed Rape plant response rating [12, 21]: 50
- Plant response rating, Oilseed Rape [12, 22]: 65
- Plant response rating, Oilseed Rape [12, 23]: 90
- Plant response rating (scale 0 to 100), Oilseed Rape ([12]; Preemergence, 125 g ai/ha): 100
- Plant response rating, Oilseed Rape [12, 26]: 80
- Plant response rating, Oilseed Rape [12, 27]: 98
- Plant response rating, Oilseed Rape [12, 28]: 90
- Ragweed plant response rating [13, 20]: 15
- Ragweed plant response rating [13, 21]: 30
- Plant response rating, Ragweed [13, 22]: 40
- Plant response rating, Ragweed [13, 23]: 70
- Plant response rating (scale 0 to 100), Ragweed ([13]; Preemergence, 125 g ai/ha): 90
- Plant response rating, Ragweed [13, 26]: 15
- Plant response rating, Ragweed [13, 27]: 55
- Plant response rating, Ragweed [13, 28]: 65
- Wheat plant response rating [14, 20]: 0
- Wheat plant response rating [14, 21]: 5
- Plant response rating, Wheat [14, 22]: 5
- Plant response rating, Wheat [14, 23]: 20
- Plant response rating (scale 0 to 100), Wheat ([14]; Preemergence, 125 g ai/ha): 0
- Plant response rating, Wheat [14, 26]: 0
- Plant response rating, Wheat [14, 27]: 0
- Plant response rating, Wheat [14, 28]: 0
- Nutsedge, Yellow plant response rating [15, 20]: 0
- Nutsedge, Yellow plant response rating [15, 21]: 0
- Plant response rating, Nutsedge, Yellow [15, 22]: 0
- Plant response rating, Nutsedge, Yellow [15, 23]: 5
- Plant response rating (scale 0 to 100), Nutsedge, Yellow ([15]; Preemergence, 125 g ai/ha): 5
- Plant response rating, Nutsedge, Yellow [15, 26]: 0
- Plant response rating, Nutsedge, Yellow [15, 27]: 0
- Plant response rating, Nutsedge, Yellow [15, 28]: 0

Source: patent US10131652B2, “Pyrimidinyloxy benzene derivatives as herbicides” (E. I. DU PONT DE NEMOURS AND COMPANY, priority 2014, dated 2018)
